We go through 8 compounds from publication PMC8433833, “Heteroleptic Oxidovanadium(V) Complexes with Activity against Infective and Non-Infective Stages of Trypanosoma cruzi” (Molecules, 2021).

Test [1] relates to VERO cells. Description: Cytotoxicity on VERO cells (MTT assay). The format is cell-based, African green monkeys. The note with it: Primates, 24 h, read-out: IC50 VERO ± SD. The method, then:
VERO cells. VERO cells (ATCC CCL81, Manassas, VA, USA) were used as mammalian cell model for testing unspecific cytotoxicity. This cell lineage was isolated from kidney epithelial cells from African green monkeys and is widely used for phenotypic screening of drugs as it is regarded as a normal cell derived from epithelial tissue.
Cells were cultured in RPMI medium (Gibco, Grand Island, NY, USA) supplemented with 10% heat inactivated fetal bovine serum, penicillin (100 units/mL) and streptomycin (100 µg/mL) at 37 °C in a humidified 5% CO2 incubator. For maintenance, confluent cells were washed with PBS, incubated for 3 min with trypsin-EDTA (Gibco), diluted and re-plated.
The compounds were initially dissolved in DMSO (stock concentration). […]
For the cytotoxicity assay, 10,000 cells per well were seeded in a 96-well plate in RPMI medium and were incubated at 37 °C in a 5% CO2 atmosphere. […] Cell viability was assessed using MTT (3-(4, 5-dimethylthiazolyl-2)-2, 5-diphenyltetrazolium bromide) assay, where MTT is reduced by metabolically active cells to generate reducing equivalents such as NADH and NADPH, resulting in the formation of an intracellular purple formazan which can be solubilized by the addition of DMSO. […] Plates were kept for 15 min with agitation and absorbance was measured at 570 nm in a Thermo Scientific Varioskan® Flash Multimode instrument (Waltham, MA, USA). […]
On the technique in general: Tetrazolium dyes change colour on reduction, which living cells bring about.

Test [2] relates to T. cruzi epimastigotes (CL Brener strain). Description: In vitro activity against epimastigotes of T. cruzi (alamar Blue). The note with it: for IC50: Trypanosoma cruzi, 24 h, read-out: IC50 Epimastigotes T. cruzi ± SD. The format is cell-based, Trypanosoma cruzi. In general terms: The colour change of resazurin is a common sign of viable cells or microbes.
Test [3] relates to T. cruzi trypomastigotes (CL Brener strain). Description: In vitro activity against cell-derived trypomastigotes of T. cruzi (alamar Blue). The format is cell-based, Trypanosoma cruzi. The conditions noted are these: for IC50: Trypanosoma cruzi, 24 h, read-out: IC50 Trypomastigotes T. cruzi ± SD.
The subject of a further test is calf thymus DNA (ctDNA). Kind of test: Competitive binding to {DNA-EB} adduct by fluorescence. The note with it: ctDNA 1.5 μM, EB 0.75 μM, 10 mM Tris-HCl pH 7.4, DMSO ≤5% v/v. The method, then:
Experiments for competitive binding to calf thymus DNA (ctDNA, SIGMA, Type I, No. D-1501, St. […] Millipore water was used for the preparation of solutions of the complexes for the studies and for buffer solution. Fluorescence measurements were performed as titration using a fixed concentration of ctDNA and EB while gradually increasing the concentration of the [V^VO(IN-2H)(L2-H)] complex, L2 and IN free ligands. ctDNA stock solutions were prepared by hydrating ctDNA in Tris-HCl buffer (1 mg mL^−1, ~2 mM nuc^−1). This solution was allowed to stand at 4 °C. The concentration of the stock solution was determined by UV spectrophotometry using the molar absorption coefficient ε (260 nm) = 6600 M^−1cm^−1nuc^−1 [76]. An EB 0.5 mM solution was prepared in Tris-HCl buffer. Due to the low solubility of the complexes in aqueous media, DMSO was used to prepare concentrated stock solutions, followed by appropriate dilution. […] Fluorescence spectra were recorded from 540 nm to 680 nm at an excitation wavelength of 510 nm on a Shimadzu RF 5301 spectrofluorimeter (Kyoto, Japan) and in a 10.0 × 10.0 mm^2 quartz cuvette. Samples with only compounds and ctDNA (without EB) were used as blanks and subtracted from the sample spectra. […] KSV were determined from the plot of F0/F versus [Q].

The subject of test [4] is VERO cells. Details: method as in doi:10.1039/C9NJ02589H. The conditions noted are these: ref [42], read-out: IC50 VERO ± SD; cited from earlier work.
The subject of test [5] is Caenorhabditis elegans Bristol strain N2. Description: In vivo toxicity on C. elegans (motility, viability, development). The note with it: C. elegans L4, 2 µM, positive control. The method, then:
The wild-type Caenorhabditis elegans (C. elegans) Bristol strain N2 and Escherichia coli (E. coli) OP50 strain were obtained from the Caenorhabditis Genomics Center (Minneapolis, MN, USA). Worms were maintained under standard conditions at 20 °C on Nematode Growth Media (NGM) agar plates seeded with E. coli OP50 as a source of food as previously described. The method used to assess toxicity is based on worm motility according to previously described. Briefly, the locomotor activity recording system, WMicrotracker^TM ONE (PhylumTech, Santa Fe, Argentina) detects infrared microbeam interruptions. Synchronized L4 C. elegans worms were removed from culture plates and washed three times with M9 buffer (3 g KH2PO4; 6 g Na2HPO4; 5 g NaCl; 1 mL 1 M MgSO4 per liter) by centrifugation at 1000 g. Worms in M9 1% DMSO were plated in 96-well flat microtiter plates (Deltalab, Barcelona, Spain). Approximately 70 worms per well were seeded in 60 µL M9 buffer containing 1% DMSO and their basal movement was measured for 30 min to normalize the movement activity for each well at the beginning of the assay. Then, compound [V^VO(IN-2H)(L2-H)] dissolved in M9 buffer 1% DMSO was added to a final concentration range of 6.5–100 µM in a final volume of 100 µL per well. […] The motility using WMicrotracker^TM ONE was measured for 18 h. […]

Like-named read-outs stand apart in the source and are kept apart here.

Regarding `O=C(N/N=C/c1c(O)ccc2ccccc12)c1ccncc1` [IN], the IC50 (in general, the concentration at which inhibition is half-maximal) with VERO cells [1] is 22.6 ± 3.7 µM; in test [2] (CL Brener strain), above 20 µM; in test [3] (CL Brener strain, cell-derived), above 20 µM. For the same compound, the “activity on epimastigotes (in words)” value in test [2] is listed as “negligible activity”. Moreover, the “activity on trypomastigotes (in words)” value in test [3] was “negligible activity”. In addition, the “log (KSV), Stern–Volmer constant for competitive binding to {DNA-EB} adduct” value with calf thymus DNA (ctDNA) came out at 4.29.
In the case of `Oc1cccc2cccnc12` [L0], the values for the half-maximal inhibitory concentration (IC50) (in test [2]; in test [3]; in the test on VERO cells [4]) were 9.42 ± 2.23 µM, 0.47 ± 0.07 µM and 10.1 ± 3.9 µM, respectively.
Consider `Oc1c(Cl)cc(Cl)c2cccnc12` [L1, 5,7-dichloro-8-hydroxyquinolne], for which the IC50 was 7.17 ± 1.07 µM in test [2] (CL Brener strain); 2.25 ± 0.95 µM in test [3] (CL Brener strain, cell-derived); 66.5 ± 13.1 µM in the test on VERO cells [4].
As to `Oc1c(I)cc(Cl)c2cccnc12` [L2, 5-chloro-7-iodo-8-hydroxyquinoline], the IC50 in test [2] (CL Brener strain) was 2.76 ± 0.52 µM; in test [3] (CL Brener strain, cell-derived) it was 0.4 ± 0.08 µM; in the test on VERO cells [4], 64.7 ± 9.1 µM. Also, the “log (KSV), Stern–Volmer constant for competitive binding to {DNA-EB} adduct” value with calf thymus DNA (ctDNA) is reported as 4.68.
As for `Oc1c(I)cc(I)c2cccnc12` [L3], the IC50 in test [2] (CL Brener strain) is 2.17 ± 0.35 µM; in test [3] (CL Brener strain, cell-derived), 1.1 ± 0.88 µM; with VERO cells [4] it was 75.5 ± 16.3 µM.
Regarding `O=[N+]([O-])c1ccc(O)c2ncccc12` [L4], the IC50 in test [2] (CL Brener strain) was 2.58 ± 0.56 µM; in test [3] (CL Brener strain, cell-derived), 1.01 ± 0.73 µM; in the test on VERO cells [4], 12.5 ± 4.5 µM.
For `CC1CS(=O)(=O)CCN1/N=C/c1ccc([N+](=O)[O-])o1` (centres unmarked) [Nifurtimox], the IC50 was 3.68 ± 0.71 µM in test [2] (CL Brener strain); 20.1 ± 2.86 µM in test [3] (CL Brener strain, cell-derived); 998 ± 90.6 µM in the test with VERO cells [4].
As to ivermectin, the “effect on worm motility” value in test [5] is reported as “reduced motility to zero”.
